Experiments:
[1] = tested on: primary human CD19+ B cells differentiating toward the plasma cell lineage; experiment: B cell differentiation assay, cell phenotyping by flow cytometry (CD20/CD38); assay type: cell-based; conditions: in vitro primary human B cell differentiation culture; FIG. 1
Experimental: The effect of Compound I-S on the expression of transcription factors controlling plasma cell differentiation and immunoglobulin production using an in-vitro human B-cell differentiation culture system was invesitaged according to the procedures below:
Twenty-five milliliters human buffy coat were placed into each of two 50-mL conical tubes and 25 mL sterile Hank's buffered saline solution (HBSS) were added to each conical tube. The tubes were gently mixed by inverting. Fifteen milliliters of room temperature Ficoll-Paque Plus (GE Healthcare; Cat#17-1440-02) were placed into each of four 50-mL conical tubes. Then 25 mL of the buffy coat/HBSS mixture were layered gently and slowly on top of the Ficoll. […] The cell pellet was resuspended in 20 mL of B cell medium (Iscove's modified Dulbecco's medium+10% premium fetal bovine serum [PFBS], 1% penicillin/streptomycin [P/S], and 5 μg/mL human insulin), pipetted through a 30 micron filter, and an aliquot was counted using the cell counter.
Aliquots of purified PBMCs (2×10^8 cells) were placed in tubes, centrifuged at 1200 rpm for 5 minutes, and then supernatants were discarded. […] The enriched CD19^+ cells were resuspended in 5 mL of B cell medium and counted on the cell counter. […]
(§1) Cells were harvested and counted on the cell counter, an aliquot was removed for flow analysis, and the remaining cells were washed with phosphate buffered saline (PBS). […]

primary human B cells = experiment: Cell viability analysis (Trypan blue live cell count) in B cell differentiation culture; assay type: cell-based; conditions: cell counts on Day 4 and Day 7 of the 7 day culture; FIG. 2
Experimental: (§2) Fresh B cell cocktail was prepared by adding 50 μg/mL of human transferrin to B cell medium (Iscove's medium with 10% PFBS, 1% P/S, and 5 μg/mL human insulin). The required volume of medium needed for the experiment was filtered through a 0.22 micron filter. Add B cell differentiation cocktail (final concentration): recombinant human Interleukin (IL)-2 (20 U/mL), IL-10 (50 ng/mL), IL-15 (10 ng/mL), CD40 Ligand/TNFSF5/histidine-tagged (50 ng/mL), polyHistidine mouse IgG1 antibody (5 μg/mL), and ODN 2006-Human TLR9 ligand (10 μg/mL) to cells. Five milliliters (1×10^5/mL) of CD19^+ B cells were added to each well of a 6-well flat-bottom plate (final cell count=5×10^5/well). Five microliters of a 1× solution of compound or DMSO was added to each test well (0.1% final concentration of DMSO) and incubated at 37{dot over (◯)}° C. for 4 days.
as §1
(§3) On Day 4 and Day 7 cells were harvested and counted on the cell counter. […]
To determine live cell count, B cells (see B Cell Differentiation Assay above) were stained with 0.4% Trypan blue (Gibco cat #15250) and live cells counted using the Countess automated cell counter (Invitrogen) in duplicate samples.

OBF-1 = experiment: Gene expression (RT-PCR) in differentiated B cells; assay type: cell-based, human; conditions: Day 7 differentiated B cells, normalized to 0.1% DMSO; FIG. 3
Experimental: as §2
(§4) Cells were harvested and counted on the cell counter, an aliquot was removed for flow analysis, and the remaining cells were washed with phosphate buffered saline (PBS). Fresh B cell cocktail was prepared by adding 1 μg/ml of human transferrin to B cell medium (Iscove's medium with 10% PFBS, 1% P/S, and 5 μg/mL human insulin). The required volume of medium needed for the experiment was filtered through a 0.22 micron filter. B cell differentiation cocktail (final concentration) consisting of: recombinant human IL-2 (20 U/mL), IL-10 (50 ng/mL), IL-15 (10 ng/mL), and IL-6 (50 ng/mL) was added to cells. Fresh B cell cocktail was added to cells. Cells were transferred back to the original wells and the volume was adjusted to 5 mL. Five microliters of a 1× solution of compound or DMSO was added to each test well (0.1% final DMSO) and incubated at 37{dot over (◯)}° C. for 3 days.
(§5) On Day 4 and Day 7 cells were harvested and counted on the cell counter. A portion of the cells were then removed for flow analysis and the remaining cells were lysed with RLT buffer and stored at −80° C. for RNA extraction and gene expression. Supernatants were divided into aliquots and frozen at −20° C. for immunoglobulin assays.
(§6) Differentiated B cells (see B Cell Differentiation Assay above) were harvested for total ribonucleic acid (RNA) preparation with a Qiacube RNA extraction instrument (Qiagen, Valencia, Calif.) using QIAGEN RNeasy mini spin-column kits (Catalog #74104). Purified RNA was reverse transcribed into cDNA with thermal cycler (MJ Research, Inc., St. Bruno, Quebec, Canada) using a reverse-transcriptase kit (Applied Biosystems). The gene expression assay was carried out using 7500 real time polymerase chain reaction (RT-PCR) system (Applied Biosystems) in triplicate. A glyceraldehyde 3-phosphate dehydrogenase gene expression assay control was run for each sample and used as a normalization control. For each gene, values for samples within each experiment were normalized to the corresponding 0.1% DMSO treatment value for that particular time point.

IgJ = experiment: Gene expression (RT-PCR) in differentiated B cells; assay type: cell-based, human; conditions: Day 7 differentiated B cells, normalized to 0.1% DMSO; FIG. 3
Experimental: as §2, §4, §5, §6

IRF-4 = experiment: Gene expression (RT-PCR) in differentiated B cells; assay type: cell-based, human; conditions: Day 7 differentiated B cells, normalized to 0.1% DMSO; FIG. 3
Experimental: as §2, §4, §5, §6

BCL-6 = experiment: Gene expression (RT-PCR) in differentiated B cells; assay type: cell-based, human; conditions: Day 7 differentiated B cells, normalized to 0.1% DMSO; FIG. 3
Experimental: as §2, §4, §5, §6

XBP-1 = experiment: Gene expression (RT-PCR) in differentiated B cells; assay type: cell-based, human; conditions: Day 7 differentiated B cells, normalized to 0.1% DMSO; FIG. 3
Experimental: as §2, §4, §5, §6

BLIMP-1 = experiment: Gene expression (RT-PCR) in differentiated B cells; assay type: cell-based, human; conditions: Day 7 differentiated B cells, normalized to 0.1% DMSO; FIG. 3
Experimental: as §2, §4, §5, §6

IgG production = experiment: Immunoglobulin assay (ELISA) of plasmablast culture supernatants; assay type: cell-based, human; conditions: during plasmablast differentiation; FIG. 5
Experimental: as §2
(§7) Cells were harvested and counted on the cell counter, an aliquot was removed for flow analysis, and the remaining cells were washed with phosphate buffered saline (PBS). Fresh B cell cocktail was prepared by adding 1 μg/ml of human transferrin to B cell medium (Iscove's medium with 10% PFBS, 1% P/S, and 5 μg/mL human insulin). […]
as §3
(§8) Supernatants (see B Cell Differentiation Assay above) were harvested and analyzed by ELISA for IgG and IgM production (ZeptoMetrix Corp, Buffalo, N.Y.).

IgM production = experiment: as above; assay type: cell-based, human; conditions: during plasmablast differentiation; FIG. 4
Experimental: as §2, §7, §3, §8

O=C1CC[C@H](N2Cc3c(OCc4ccc(CN5CCOCC5=O)cc4)cccc3C2=O)C(=O)N1 [Compound I-S, (S)-3-(1-oxo-4-((4-((3-oxomorpholino)methyl)benzyl)oxy)isoindolin-2-yl)piperidine-2,6-dione]
percentage of CD20+CD38- activated B cells (ABC) [1]: increased | percentage of CD20-CD38+ plasmablasts (PB) [1]: dose-dependently reduced | B cell viability (live cell count) (primary human B cells): reduce B cell viability | expression of plasma cell lineage transcription factor OBF-1 (OBF-1): dose-dependently and significantly inhibited | expression of plasma cell lineage transcription factor IgJ (IgJ): dose-dependently and significantly inhibited | expression of plasma cell lineage transcription factor IRF-4 (IRF-4): dose-dependently and significantly inhibited | expression of germinal center lineage B cell transcription factor BCL-6 (BCL-6): did not decrease | expression of plasma cell lineage transcription factor XBP-1 (XBP-1): dose-dependently and significantly inhibited | expression of plasma cell lineage transcription factor BLIMP-1 (BLIMP-1): dose-dependently and significantly inhibited | IgG production (IgG production): significantly inhibited | IgM production (IgM production): significantly inhibited
